Consider 16 molecules from US10752587B2, “Homobispiperidinyl derivatives as liver X receptor beta agonists, compositions and their use” (Merck Sharp & Dohme Corp., priority 2015, dated 2020).

Where two headings read alike, the source gives them in different places.

The target of assay [1] is T1, glutathione-S-transferase (GST) tagged LXRbeta LBD (ligand binding domain) (Homo sapiens, UniProt P55055).
T1 construct: purchased Invitrogen pv4658.pps
T1 sequence (P55055 222-460 limits assumed): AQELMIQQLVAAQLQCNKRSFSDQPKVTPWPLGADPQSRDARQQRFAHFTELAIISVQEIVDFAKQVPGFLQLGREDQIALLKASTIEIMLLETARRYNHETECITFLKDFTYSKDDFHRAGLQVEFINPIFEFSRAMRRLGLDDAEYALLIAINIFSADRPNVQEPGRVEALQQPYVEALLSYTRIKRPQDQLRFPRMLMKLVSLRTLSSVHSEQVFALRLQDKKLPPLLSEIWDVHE
The assay is described as follows: LanthaScreen TR-FRET Liver X Receptor Coactivator Assay, co-activator recruitment to LXRbeta LBD. The class given is biochemical. The method in brief:
(§1)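 Efficacy (Emax) and inflection-point potency were scaled to reference agonist T0901317, acting on both LXR subtypes. Ligand-driven coactivator peptide recruitment was detected by TR-FRET after room-temperature incubation with terbium anti-GST antibody.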
Background: In TR-FRET formats the signal depends on donor and acceptor labels being close together.

The target of assay [2] is T2, glutathione-S-transferase (GST) tagged LXRalpha LBD (ligand binding domain) (Homo sapiens, UniProt Q13133).
T2 construct: purchased Invitrogen pv4655
T2 sequence (Q13133 209-447 limits assumed): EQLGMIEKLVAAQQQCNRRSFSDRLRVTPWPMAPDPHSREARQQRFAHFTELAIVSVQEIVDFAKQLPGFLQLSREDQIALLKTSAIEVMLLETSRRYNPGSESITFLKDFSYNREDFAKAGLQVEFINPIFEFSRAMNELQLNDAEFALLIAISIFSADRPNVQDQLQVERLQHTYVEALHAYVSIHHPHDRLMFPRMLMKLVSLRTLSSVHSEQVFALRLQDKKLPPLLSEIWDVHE
The assay is described as follows: LanthaScreen TR-FRET Liver X Receptor Coactivator Assay, co-activator recruitment to LXRalpha LBD. The format is biochemical. The method in brief:
as §1

[3] abbreviates: efficacy at max dose, in relation to reference dual agonist T0901317, read-out: LXR beta Activity @ max dose (%).
The mark [4] stands for this setting: potency (Inflection Point, IP), co-activator recruitment to LXRbeta LBD, in relation to T0901317, read-out: LXR beta IP.
[5] abbreviates: efficacy at max dose, in relation to reference dual agonist T0901317, read-out: LXR alpha Activity @ max dose (%).
[6] abbreviates: potency (Inflection Point, IP), co-activator recruitment to LXRalpha LBD, in relation to T0901317.
Where [7] appears, read: co-activator recruitment to GST-LXRbeta LBD, TR-FRET, read-out: LXR beta IP (Inflection Point, potency).
Where [8] appears, read: efficacy in relation to reference dual agonist T0901317, read-out: LXR beta Activity @ max dose.
Setting [9] is: efficacy in relation to reference dual agonist T0901317, read-out: LXR alpha Activity @ max dose.
The mark [10] stands for this setting: potency (Inflection Point, IP), co-activator recruitment to LXRalpha LBD, in relation to T0901317, read-out: LXR alpha IP.
[11] abbreviates: efficacy at max dose, in relation to reference dual agonist T0901317.

In the case of `CN(C)C(=O)c1ccc(N2CCC(CC3CCN(C(=O)[C@](O)(c4csc5ccccc45)C(F)(F)F)CC3)CC2)cc1Cl` (stereo in doubt) [Example 2-169, 4-[4-({1-[2-(1-benzothiophen-3-yl)-3,3,3-trifluoro-2-hydroxy-propanoyl]piperidin-4-yl}methyl)piperidin-1-yl]-2-chloro-N,N-dimethyl-benzamide], the Emax in assay [1] (setting [3]) was determined as 71%; in assay [2] (setting [5]) it was 17%. For the same molecule, the EC50 in assay [1] (setting [4]) stood at 11 nM. Also, the “LXR alpha IP (nM)” value in assay [2] (setting [6]) is recorded as “NO IP”.

On to `CN(C)C(=O)c1ccc(N2CCC(CC3CCN(S(=O)(=O)c4cccc(Br)c4)CC3)CC2)cc1Cl` [Example 13-12, 4-[4-({1-[(3-bromo-phenyl)sulfonyl]-piperidin-4-yl}methyl)-piperidin-1-yl]-2-chloro-N,N-dimethyl-benzamide], for which the EC50 in assay [1] (setting [7]) is 83 nM. Moreover, the Emax in assay [1] (setting [8]) turned out to be 54%; in assay [2] (setting [9]), 16%. Moreover, in assay [2] (co-activator recruitment to GST-LXRalpha LBD, TR-FRET), the “LXR alpha IP (Inflection Point, potency)” value is given as “NO IP”.

For `CN(C)C(=O)c1ccc(N2CCC(CC3CCN(C(=O)C(O)(c4ccccc4)C4CCCC4)CC3)CC2)nc1Cl` (stereo not shown) [Example 7-94, 2-chloro-6-[4-({1-[cyclopentyl(hydroxy)phenylacetyl]piperidin-4-yl}methyl)piperidin-1-yl]-N,N-dimethylpyridine-3-carboxamide], the EC50 in assay [1] (LXR beta IP (nM), potency (Inflection Point, IP), co-activator recruitment to LXRbeta LBD, in relation to T0901317) is 72 nM. Also, the Emax in assay [1] (read-out: LXR beta Activity @ max dose (%)) was 62%; in assay [2] (read-out: LXR alpha Activity @ max dose (%)), 10%. Also, the “LXR alpha IP (nM)” value in assay [2] (setting [6]) is on record as “NO IP”.

As for `CC(C)C(O)(C(=O)N1CCC(CC2CCN(c3ccc(C(=O)N(C)C)c(Cl)c3)CC2)CC1)C(F)(F)F` (stereo not shown) [Example 2-31, 2-chloro-4-[4-({1-[2-hydroxy-3-methyl-2-(trifluoro-methyl)butanoyl]piperidin-4-yl}methyl)piperidin-1-yl]-N,N-dimethyl-benzamide], the Emax in assay [1] (setting [3]) came out at 74%; in assay [2] (setting [5]), 24%. For the same molecule, the EC50 in assay [1] (setting [4]) worked out at 784 nM; in assay [2] (setting [10]) it was 4450 nM.

With `CN(C)C(=O)c1ccc(N2CCC(CC3CCN(C(=O)[C@](O)(c4ccccc4)C(F)(F)F)CC3)CC2)cc1` [Example 2-128, N,N-dimethyl-4-[4-({1-[(2R)-3,3,3-trifluoro-2-hydroxy-2-phenyl-propanoyl]piperidin-4-yl}methyl)piperidin-1-yl]benzamide], the Emax came out at 73% in assay [1] (setting [3]) and 34% in assay [2] (setting [5]). The EC50 worked out at 58 nM in assay [1] (setting [4]) and 1040 nM in assay [2] (setting [10]).

On to `COc1cc(C)cc([C@@](O)(C(=O)N2CCC(CC3CCN(c4ccc(C(=O)N(C)C)c(Cl)c4)CC3)CC2)C(F)(F)F)c1` [Example 2-107, 2-chloro-N,N-dimethyl-4-[4-({1-[(2R)-3,3,3-trifluoro-2-hydroxy-2-(3-methoxy-5-methylphenyl)propanoyl]piperidin-4-yl}methyl)piperidin-1-yl]benzamide], for which the results for the Emax in assay [1] (setting [3]) and in assay [2] (setting [5]) were 14% and 4%, respectively. For the same molecule, the EC50 in assay [1] (setting [4]) worked out at 238 nM; in assay [2] (setting [10]) it was 309 nM.

In the case of `CN(C)C(=O)c1ccc(N2CCC(CC3CCN(C(=O)[C@](O)(c4cccc(C5CC5)c4)C(F)(F)F)CC3)CC2)cc1Cl` [Example 2-96, 2-chloro-4-[4-({1-[(2R)-2-(3-cyclopropyl-phenyl)-3,3,3-trifluoro-2-hydroxy-propanoyl]piperidin-4-yl}methyl)piperidin-1-yl]-N,N-dimethyl-benzamide], the Emax in assay [1] (setting [3]) worked out at 63%; in assay [2] (setting [5]), 20%. Further, the EC50 in assay [1] (setting [4]) was 4 nM; in assay [2] (setting [10]) it was 66 nM.

On to `COc1cccc([C@@](O)(C(=O)N2CCC(CC3CCN(c4ccc(C(=O)N(C)C)c(Cl)n4)CC3)CC2)C(F)(F)F)c1` [Example 7-74, 2-chloro-N,N-dimethyl-6-[4-({1-[(2R)-3,3,3-trifluoro-2-hydroxy-2-(3-methoxyphenyl)propanoyl]piperidin-4-yl}methyl)piperidin-1-yl] pyridine-3-carboxamide], for which the “LXR beta Activity @ max dose (%)” value in assay [1] (setting [11]) is on record as 61%. Also, in assay [1] (setting [4]), the EC50 came to 7 nM. Also, in assay [2] (setting [11]), the “LXR alpha Activity @ max dose (%)” value was determined as 9%. The “LXR alpha IP (nM)” value in assay [2] (setting [6]) was “NO IP”.

In the case of `COc1cccc([C@@](O)(C(=O)N2CCC(CC3CCN(c4ccc(C(N)=O)c(Cl)c4)CC3)CC2)C(F)(F)F)c1` [Example 12-4, 2-chloro-4-[4-({1-[(2R)-3,3,3-trifluoro-2-hydroxy-2-(3-methoxyphenyl)-propanoyl]piperidin-4-yl}methyl)piperidin-1-yl]benzamide], the Emax in assay [1] (setting [3]) came out at 55%; in assay [2] (setting [5]), 13%. The EC50 in assay [1] (setting [4]) amounted to 5 nM. The “LXR alpha IP (nM)” value in assay [2] (setting [6]) is “NO IP”.

For `Cc1ccccc1C1(C(=O)N2CCC(CC3CCN(c4ccc(C(=O)N(C)C)c(Cl)n4)CC3)CC2)CCC1` [Example 7-56, 2-chloro-N,N-dimethyl-6-{4-[(1-{[1-(2-methylphenyl)cyclobutyl]carbonyl}piperidin-4-yl)methyl]piperidin-1-yl}pyridine-3-carboxamide], the Emax in assay [1] (setting [3]) is 114%; in assay [2] (setting [5]), 37%. Besides, the EC50 in assay [1] (setting [4]) turned out to be 20 nM; in assay [2] (setting [10]) it was 429 nM.

As to `CCc1cccc([C@@](O)(C(=O)N2CCC(C)(CC3CCN(c4ccc(C(=O)N(C)C)c(Cl)c4)CC3)CC2)C(F)(F)F)c1` [Example 2-52, 2-chloro-4-[4-({1-[(2R)-2-(3-ethyl-phenyl)-3,3,3-trifluoro-2-hydroxy-propanoyl]-4-methyl-piperidin-4-yl}methyl)piperidin-1-yl]-N,N-dimethyl-benzamide], the Emax in assay [1] (setting [3]) came to 20%; in assay [2] (setting [5]), 0%. For the same molecule, the EC50 in assay [1] (setting [4]) is 15 nM. For the same molecule, the “LXR alpha IP (nM)” value in assay [2] (setting [6]) was “NO IP”.

For `CN(C)C(=O)c1ccc(N2CCC(OC3CCN(C(=O)C(O)(c4cccc(C(F)(F)F)c4)C(F)(F)F)CC3)CC2)cc1Cl` (stereo not shown) [Example 2-25, 2-chloro-N,N-dimethyl-4-{4-[(1-{3,3,3-trifluoro-2-hydroxy-2-[3-(trifluoromethyl)phenyl]propanoyl}piperidin-4-yl)oxy]piperidin-1-yl}benzamide], the Emax was 89% in assay [1] (setting [3]) and 26% in assay [2] (setting [5]). The values for the EC50 in assay [1] (setting [4]) and in assay [2] (setting [10]) were 28 nM and 695 nM, respectively.

`NC(=O)c1ccc(N2CCC(CC3CCN(C(=O)C(O)(c4cc(F)cc(Cl)c4)C(F)(F)F)CC3)CC2)cc1Cl` (stereo not shown) [Example 12-9, 2-chloro-4-[4-({1-[2-(3-chloro-5-fluorophenyl)-3,3,3-trifluoro-2-hydroxy-propanoyl]piperidin-4-yl}methyl)piperidin-1-yl]benzamide]: the EC50 in assay [1] (setting [7]) was found to be 8 nM; in assay [2] (co-activator recruitment to GST-LXRalpha LBD, TR-FRET, read-out: LXR alpha IP (Inflection Point, potency)), 47 nM. For the same molecule, the Emax was determined as 98% in assay [1] (setting [8]) and 52% in assay [2] (setting [9]).

Take `CN(C)C(=O)c1ccc(N2CCC(CC3CCN(C(=O)[C@@](O)(c4ccccc4F)C(F)(F)F)CC3)CC2)nc1Cl` [Example 7-71, 2-chloro-N,N-dimethyl-6-[4-({1-[(2S)-3,3,3-trifluoro-2-(2-fluorophenyl)-2-hydroxypropanoyl]piperidin-4-yl}methyl)piperidin-1-yl]pyridine-3-carboxamide]: the Emax in assay [1] (setting [3]) is 122%; in assay [2] (setting [5]), 45%. The results for the EC50 in assay [1] (setting [4]) and in assay [2] (setting [10]) were 55 nM and 2060 nM, respectively.

For `CC(C)Oc1cccc([C@@](O)(C(=O)N2CC(CC3CCN(c4ccc(C(=O)N(C)C)c(Cl)c4)CC3)C2)C(F)(F)F)c1` [Example 2-60, 2-chloro-N,N-dimethyl-4-{4-[(1-{(2R)-3,3,3-trifluoro-2-hydroxy-2-[3-(1-methyl-ethoxy)phenyl]propanoyl}azetidin-3-yl)methyl]piperidin-1-yl}benzamide], the values for the Emax in assay [1] (setting [3]) and in assay [2] (setting [5]) were 66% and 2%, respectively. The EC50 in assay [1] (setting [4]) was found to be 26 nM. The “LXR alpha IP (nM)” value in assay [2] (setting [6]) is recorded as “NO IP”.

For the molecule `Cc1cc(Cl)cc([C@@](O)(C(=O)N2CCC(CC3CCN(c4ccc(C(=O)N(C)C)c(Cl)c4)CC3)CC2)C(F)(F)F)c1` [Example 2-111, 2-chloro-4-[4-({1-[(2R)-2-(3-chloro-5-methylphenyl)-3,3,3-trifluoro-2-hydroxy-propanoyl]piperidin-4-yl}methyl)piperidin-1-yl]-N,N-dimethyl-benzamide], the figures for the Emax in assay [1] (setting [3]) and in assay [2] (setting [5]) were 28% and 0%, respectively. Besides, the EC50 in assay [1] (setting [4]) came to 7 nM. Also, the “LXR alpha IP (nM)” value in assay [2] (setting [6]) was “NO IP”.
